Where no end group is shown, it is not given here.
Legend:
HIV-1IIIB = assay: HIV-1 antiviral assay in CEM-SS cells
HCMV strain AD169 = details: for inhibition of HCMV plaque formation as compared to the virus control experiment: 10 micrograms per ml, 7-10 days
[1] = tested on: Interleukin-5 (IL-5) production in murine spleen cells; assay: Th1/Th2 cytokine profiling assay: IL-5; format: cell-based, Balb/c mice; details: 10 micrograms per ml, Ovalbumin restimulation, 72 hours
[2] = tested on: Interleukin-4 (IL-4) production in murine spleen cells; assay: Th1/Th2 cytokine profiling assay: IL-4; format: cell-based, Balb/c mice; details: 10 micrograms per ml, Ovalbumin restimulation, 72 hours
[3] = tested on: Interferon-γ (IFN-γ) production in murine spleen cells; assay: Th1/Th2 cytokine profiling assay: IFN-γ; format: cell-based, Balb/c mice; details: 10 micrograms per ml; Ovalbumin restimulation, 72 hours; combination 0.95:1.05 mole
[4] = tested on: hepatitis B virus (HBV) ayw strain in HepG2-2.2.15 cells; assay: HBV experimental assay system (secreted HBV DNA, TaqMan PCR); format: cell-based; details: 10 micrograms per ml; 6 days; combination 0.95 mole peptide 1 and 1.05 mole peptide 2
[5] = tested on: Primary Human endothelial cells (HUVEC); assay: Endothelial cell migration assay; format: cell-based; details: 10 micrograms per ml; 22 hours
Procedure: Thereafter, designated concentration of testing peptides—10 micrograms per ml—was added in duplicate wells.

[6] = tested on: Tumor Necrosis Factor-α (TNF-α) production in murine spleen cells; assay: Th1/Th2 cytokine profiling assay: TNF-α; format: cell-based, Balb/c mice; details: 10 micrograms per ml, Ovalbumin restimulation, 72 hours
[7] = tested on: Interleukin-2 (IL-2) production in murine spleen cells; assay: Th1/Th2 cytokine profiling assay: IL-2; format: cell-based, Balb/c mice; details: 10 micrograms per ml; Ovalbumin restimulation, 72 hours
HUVEC = assay: Endothelial tube formation assay; format: cell-based, human; details: 10 micrograms per ml; 20 hours
Text: Positive control was vehicle only.

| Compound | antiviral activity of positive control compounds (HIV-1IIIB) | production of IFN-y, decreased by [3] [%] | inhibition of HBV replication as compared to the virus control infection [4] [%] | inhibition of the migration of human endothelial cells [5] [%] | inhibition of HCMV plaque formation as compared to the virus control experiment (HCMV strain AD169) | inhibition of the tube formation of human endothelial cells (HUVEC) [%] | other results |
| --- | --- | --- | --- | --- | --- | --- | --- |
| Cc1cn([C@H]2C[C@H](N=[N+]=[N-])[C@@H](CO)O2)c(=O)[nH]c1=O [AZT] | expected levels of antiviral activity | – | – | – | – | – | – |
| Nc1nc(O)c2ncn(COC(CO)CO)c2n1 [Ganciclovir, reference compound] | – | – | – | – | – | – | antiviral activity of positive control compound (HCMV strain AD169; positive control, MRC-5 cells, HCMV): expected levels of antiviral activity |
| CCNC(=O)[C@@H]1CCCN1C(=O)[C@H](CCCN=C(N)N)NC(=O)[C@H](CC(C)C)NC(=O)[C@@H](Cc1c[nH]c2ccccc12)NC(=O)[C@H](Cc1ccc(O)cc1)NC(=O)[C@H](CO)NC(=O)[C@H](Cc1c[nH]c2ccccc12)NC(=O)[C@H](Cc1cnc[nH]1)NC(=O)[C@@H]1CCC(=O)N1 [Peptide 1, Pyr-His-Trp-Ser-Tyr-D-Trp-Leu-Arg-Pro-NHEt] | – | 31.4 | 15.1 | 3 | did not inhibit | 7 | production of IL-5, decreased by [1]: 27.6%; production of IL-4, induced by [2]: 32.1%; change of the production of TNF-alpha ([6]; combination 0.95:1.05 mole): did not significantly change; production of IL-2, decreased by [7]: 53.2% |
| CC(C)(C)NC(=O)[C@@H]1CN(Cc2cccnc2)CCN1C[C@@H](O)C[C@@H](Cc1ccccc1)C(=O)N[C@H]1c2ccccc2C[C@H]1O [indinavir] | expected levels of antiviral activity | – | – | – | – | – | – |
| Ile-Asn-Leu-Lys-Ala-Leu-Ala-Ala-Leu-Ala-Lys-Lys-Ile-Leu-NH2 (INLKALAALAKKIL-NH2) [Peptide 2] | – | 54 | 40.6 | 23 | did not inhibit | 10 | change of the production of IL-5 ([1]; combination 0.95:1.05 mole): did not significantly change; change of the production of IL-4 ([2]; combination 0.95:1.05 mole): did not significantly change; production of TNF-a, decreased by [6]: 61.3%; production of IL-2, increased by [7]: 77% |

From US20100184698A1, “USE OF A […] […] A […] AGENT” (priority 2007, published 2010)
